The target in test [1] is T1, DNA gyrase (Escherichia coli, UniProt P0AES4+P0AES6). Put plainly: Inhibition of Escherichia coli DNA gyrase using relaxed pNO1 plasmid and biotinylated oligonucelotide incubated for 30 mins by fluorescence based DNA super-coiling assay. Format: protein-complex assay.
Test [2] has as its target DNA gyrase (Staphylococcus aureus, UniProt P0A0K8+P20831). Put plainly: Inhibition of Staphylococcus aureus DNA gyrase using relaxed pNO1 plasmid and biotinylated oligonucelotide incubated for 30 mins by fluorescence based DNA super-coiling assay. Format: protein-complex assay.
Test [3] has as its system Escherichia coli. Description: Inhibition of Escherichia coli DNA topoisomerase 4 assessed as residual enzyme activity at 100 uM using relaxed pNO1 plasmid and biotinylated oligonucelotide incubated for 30 mins by fluorescence based DNA relaxation assay.
In test [4] the target is Topoisomerase IV (Staphylococcus aureus, UniProt P0C1S7+P0C1U9). Description: Inhibition of Staphylococcus aureus DNA topoisomerase 4 using relaxed pNO1 plasmid and biotinylated oligonucelotide incubated for 30 mins by fluorescence based DNA relaxation assay. The test is classed as protein-complex assay.
For test [5], the system named is Escherichia coli. Put plainly: Antibacterial activity against wild type Escherichia coli ATCC 25922 by broth microdilution method. The test is classed as functional.
The test system of test [6] is Escherichia coli. Description: Antibacterial activity against efflux deficient Escherichia coli tolC::Tn10 lacking functional tolC gene by broth microdilution method. A general note: Broth dilution looks for growth in wells or tubes with falling amounts of substance.
In test [7] the test system is Escherichia coli. Put plainly: Antibacterial activity against Escherichia coli imp4213::Tn10 by broth microdilution method. Format: functional.
Test [8] has as its system Escherichia coli. Put plainly: Antibacterial activity against wild type Escherichia coli ATCC 25922 assessed as inhibition of microbial growth at 50 uM by broth microdilution method. The following applies: read-out: GI. Format: functional.
In test [9] the test system is Pseudomonas aeruginosa. Description: Antibacterial activity against Pseudomonas aeruginosa ATCC 27853 assessed as inhibition of microbial growth at 50 uM by broth microdilution method. The following applies: read-out: GI. The test is classed as functional.
Test [10] relates to Enterococcus faecalis. Put plainly: Antibacterial activity against Enterococcus faecalis ATCC 29212 assessed as inhibition of microbial growth at 50 uM by broth microdilution method. Format: functional. The settings on record: read-out: GI.
Test [11] concerns Staphylococcus aureus. Description: Antibacterial activity against Staphylococcus aureus 25923 assessed as inhibition of microbial growth at 50 uM by broth microdilution method. The settings on record: read-out: GI. The test is classed as functional.
Test [12] deals with Escherichia coli. Description: Antibacterial activity against wild type Escherichia coli ATCC 25922 assessed as inhibition of microbial growth by broth microdilution method. The test is classed as functional.
Test [13] concerns Pseudomonas aeruginosa. Put plainly: Antibacterial activity against Pseudomonas aeruginosa ATCC 27853 assessed as inhibition of microbial growth by broth microdilution method. The test is classed as functional.
For test [14], the system named is Enterococcus faecalis. Put plainly: Antibacterial activity against Enterococcus faecalis ATCC 29212 assessed as inhibition of microbial growth by broth microdilution method. The test is classed as functional.
Test [15] relates to Staphylococcus aureus. Put plainly: Antibacterial activity against Staphylococcus aureus 25923 assessed as inhibition of microbial growth by broth microdilution method. The test is classed as functional.
Test [16] deals with T1, DNA gyrase. Put plainly: Binding affinity to Escherichia coli DNA gyrase subunit B N-terminal 24 kDa domain by SPR assay. The test is classed as protein-complex assay. (In SPR one partner is held on a chip, and binding of the other changes the refractive index at the surface.)
Test [17] has as its target DNA gyrase (Staphylococcus aureus) (UniProt P0A0K8+P20831). Description: Inhibition of Staphylococcus aureus DNA gyrase assessed as residual enzyme activity at 100 uM using relaxed pNO1 plasmid and biotinylated oligonucelotide incubated for 30 mins by fluorescence based DNA super-coiling assay. Format: protein-complex assay.
Test [18] addresses Topoisomerase IV (Staphylococcus aureus) (UniProt P0C1U9+P0C1S7). Put plainly: Inhibition of Staphylococcus aureus DNA topoisomerase 4 assessed as residual enzyme activity at 100 uM using relaxed pNO1 plasmid and biotinylated oligonucelotide incubated for 30 mins by fluorescence based DNA relaxation assay. The test is classed as protein-complex assay.

≈ marks a conversion by molar mass, not a printed value.

The source of these data is ChEMBL document CHEMBL3588817, “Discovery of 4,5,6,7-Tetrahydrobenzo[1,2-d]thiazoles as Novel DNA Gyrase Inhibitors Targeting the ATP-Binding Site” (J Med Chem, 2015).

The term IC50 denotes the concentration that gives 50% inhibition. The MIC is the least concentration at which growth counts as inhibited. For orientation: Kd means the constant that tells how readily two partners part at equilibrium. High values mean a looser complex, low ones a tighter complex.

Chain of DNA gyrase (Staphylococcus aureus) (P0A0K8 2-644 limits assumed): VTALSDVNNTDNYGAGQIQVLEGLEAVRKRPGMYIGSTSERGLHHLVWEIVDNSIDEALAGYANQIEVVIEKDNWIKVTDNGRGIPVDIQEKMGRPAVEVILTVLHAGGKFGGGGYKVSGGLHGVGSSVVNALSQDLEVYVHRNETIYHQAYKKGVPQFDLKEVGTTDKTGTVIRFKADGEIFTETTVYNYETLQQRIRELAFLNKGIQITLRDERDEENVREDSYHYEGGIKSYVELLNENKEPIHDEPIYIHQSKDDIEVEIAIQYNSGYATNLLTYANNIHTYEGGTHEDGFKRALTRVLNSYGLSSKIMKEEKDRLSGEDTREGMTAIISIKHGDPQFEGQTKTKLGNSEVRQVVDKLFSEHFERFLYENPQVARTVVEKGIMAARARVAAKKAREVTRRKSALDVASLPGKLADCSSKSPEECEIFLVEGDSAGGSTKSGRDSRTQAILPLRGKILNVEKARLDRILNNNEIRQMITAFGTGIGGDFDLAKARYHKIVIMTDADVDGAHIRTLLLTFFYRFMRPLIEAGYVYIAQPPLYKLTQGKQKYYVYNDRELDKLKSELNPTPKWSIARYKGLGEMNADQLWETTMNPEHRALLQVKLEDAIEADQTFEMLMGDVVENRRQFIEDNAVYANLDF
Chain of DNA gyrase (Staphylococcus aureus) (P20831 whole entry partner): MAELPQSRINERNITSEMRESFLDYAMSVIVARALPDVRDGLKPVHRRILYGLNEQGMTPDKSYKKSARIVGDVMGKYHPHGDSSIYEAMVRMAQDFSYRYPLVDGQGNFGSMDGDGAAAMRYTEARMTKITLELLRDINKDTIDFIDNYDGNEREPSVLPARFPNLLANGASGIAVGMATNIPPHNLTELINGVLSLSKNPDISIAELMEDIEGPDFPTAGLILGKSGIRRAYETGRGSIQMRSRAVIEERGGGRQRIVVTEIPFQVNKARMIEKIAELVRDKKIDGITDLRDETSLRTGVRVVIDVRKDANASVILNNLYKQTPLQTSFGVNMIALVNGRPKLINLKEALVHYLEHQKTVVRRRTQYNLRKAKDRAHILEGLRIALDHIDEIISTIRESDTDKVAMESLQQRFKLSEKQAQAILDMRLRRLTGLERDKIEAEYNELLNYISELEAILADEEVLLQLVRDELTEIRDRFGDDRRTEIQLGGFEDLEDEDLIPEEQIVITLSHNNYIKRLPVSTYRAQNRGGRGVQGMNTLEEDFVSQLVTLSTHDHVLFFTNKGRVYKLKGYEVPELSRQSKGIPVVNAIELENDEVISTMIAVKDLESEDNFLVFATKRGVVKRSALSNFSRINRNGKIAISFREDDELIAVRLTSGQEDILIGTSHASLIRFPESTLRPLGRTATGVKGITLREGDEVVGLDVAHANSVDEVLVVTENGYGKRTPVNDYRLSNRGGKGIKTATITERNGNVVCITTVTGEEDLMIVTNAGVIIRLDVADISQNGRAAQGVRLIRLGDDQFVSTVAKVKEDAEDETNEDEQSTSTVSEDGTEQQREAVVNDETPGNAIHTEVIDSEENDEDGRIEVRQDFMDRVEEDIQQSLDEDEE
Chain of DNA gyrase (Staphylococcus aureus, UniProt P0A0K8+P20831) (P0A0K8 whole entry): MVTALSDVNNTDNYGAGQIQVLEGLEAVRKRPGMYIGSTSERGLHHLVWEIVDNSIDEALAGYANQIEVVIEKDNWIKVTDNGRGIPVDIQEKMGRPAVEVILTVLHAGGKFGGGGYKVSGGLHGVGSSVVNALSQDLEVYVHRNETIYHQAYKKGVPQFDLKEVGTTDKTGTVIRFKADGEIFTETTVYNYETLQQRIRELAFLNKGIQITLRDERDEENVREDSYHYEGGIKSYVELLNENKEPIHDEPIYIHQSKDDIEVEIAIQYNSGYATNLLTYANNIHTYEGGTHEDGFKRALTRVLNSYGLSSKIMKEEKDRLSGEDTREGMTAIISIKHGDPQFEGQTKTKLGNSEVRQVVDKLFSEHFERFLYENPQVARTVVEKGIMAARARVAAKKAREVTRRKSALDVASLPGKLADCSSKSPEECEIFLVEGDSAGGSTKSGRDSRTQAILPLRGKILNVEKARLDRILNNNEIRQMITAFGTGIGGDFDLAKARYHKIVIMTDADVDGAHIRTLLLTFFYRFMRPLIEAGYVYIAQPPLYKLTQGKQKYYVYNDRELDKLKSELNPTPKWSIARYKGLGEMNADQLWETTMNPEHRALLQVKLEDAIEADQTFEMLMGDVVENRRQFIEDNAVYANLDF
Chain of DNA gyrase (Staphylococcus aureus, UniProt P0A0K8+P20831) (P20831 whole entry): as the sequence (P20831 whole entry partner) above
Chain of Topoisomerase IV (P0C1U9 whole entry): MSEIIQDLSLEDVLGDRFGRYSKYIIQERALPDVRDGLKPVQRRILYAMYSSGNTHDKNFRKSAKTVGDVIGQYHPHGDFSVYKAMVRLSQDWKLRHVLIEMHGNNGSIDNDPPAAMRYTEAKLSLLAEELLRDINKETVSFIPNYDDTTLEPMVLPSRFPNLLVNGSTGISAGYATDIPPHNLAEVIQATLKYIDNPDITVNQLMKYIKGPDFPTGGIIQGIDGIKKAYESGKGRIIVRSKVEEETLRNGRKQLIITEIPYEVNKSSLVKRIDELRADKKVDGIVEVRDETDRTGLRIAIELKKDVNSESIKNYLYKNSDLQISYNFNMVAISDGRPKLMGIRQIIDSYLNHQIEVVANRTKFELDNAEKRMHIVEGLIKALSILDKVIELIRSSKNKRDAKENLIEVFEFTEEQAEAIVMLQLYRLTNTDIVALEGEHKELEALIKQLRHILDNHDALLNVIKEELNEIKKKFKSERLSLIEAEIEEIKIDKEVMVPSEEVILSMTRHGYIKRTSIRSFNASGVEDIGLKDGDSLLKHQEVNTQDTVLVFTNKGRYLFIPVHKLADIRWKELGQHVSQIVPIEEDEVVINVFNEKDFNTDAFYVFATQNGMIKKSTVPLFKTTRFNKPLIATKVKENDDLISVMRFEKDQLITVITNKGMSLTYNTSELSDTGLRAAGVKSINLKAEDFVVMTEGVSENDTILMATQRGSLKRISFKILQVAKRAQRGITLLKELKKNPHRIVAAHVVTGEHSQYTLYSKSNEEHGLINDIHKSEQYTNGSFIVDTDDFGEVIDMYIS
Chain of Topoisomerase IV (P0C1S7 whole entry): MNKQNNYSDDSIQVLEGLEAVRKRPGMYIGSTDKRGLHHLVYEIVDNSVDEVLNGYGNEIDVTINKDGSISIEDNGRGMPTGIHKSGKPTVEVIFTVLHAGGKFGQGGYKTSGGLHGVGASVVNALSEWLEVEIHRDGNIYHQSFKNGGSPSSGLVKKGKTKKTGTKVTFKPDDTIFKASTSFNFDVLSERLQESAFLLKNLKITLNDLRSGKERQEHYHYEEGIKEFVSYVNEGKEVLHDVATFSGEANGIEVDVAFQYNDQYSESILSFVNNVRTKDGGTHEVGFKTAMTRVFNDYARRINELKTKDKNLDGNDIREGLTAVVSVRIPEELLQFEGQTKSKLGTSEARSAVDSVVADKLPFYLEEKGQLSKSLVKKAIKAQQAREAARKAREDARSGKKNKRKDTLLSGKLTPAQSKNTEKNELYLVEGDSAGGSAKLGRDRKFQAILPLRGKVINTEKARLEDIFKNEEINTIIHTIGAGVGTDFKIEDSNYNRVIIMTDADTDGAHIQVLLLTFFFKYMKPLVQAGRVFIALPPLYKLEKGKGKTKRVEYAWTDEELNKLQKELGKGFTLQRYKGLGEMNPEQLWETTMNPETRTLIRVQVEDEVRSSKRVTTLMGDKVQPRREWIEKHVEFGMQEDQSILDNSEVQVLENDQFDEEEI

As to `O=C(O)C(=O)Nc1nc2c(s1)C[C@@H](NC(=O)c1cc(Cl)c(Cl)[nH]1)CC2`, the IC50 was 0.59 µM in test [1], 300 µM in test [2] and 170 µM in test [4]. Moreover, the Activity in [3] came to 82%. For the same compound, the MIC is greater than 256 µg/mL in [5]; greater than 256 µg/mL in test [6]; greater than 256 µg/mL in [7]; greater than 125 µM in [12]; greater than 125 µM in test [13]; greater than 125 µM in test [14]. In addition, the MIC in [15] was greater than 125 µM. The inhibition of growth at 50 µM in test [8], in test [9], in test [10] and in test [11] was less than 50% in each case.
As to `COC(=O)CC(=O)Nc1nc2c(s1)C[C@@H](NC(=O)c1cc(Cl)c(Cl)[nH]1)CC2`, the Kd in [16] was determined as 0.05 µM. In [1], this compound came in with an IC50 of 0.4 µM. Moreover, the Activity in test [17] was found to be 63%; in test [3] it was 97%; in [18], 101%. In addition, the MIC in [5] was greater than 256 µg/mL; in [6], 32 µg/mL (≈ 74.2 µM); in test [7] it was 32 µg/mL (≈ 74.2 µM); in test [12], greater than 125 µM; in test [13], greater than 125 µM; in test [14], greater than 125 µM. Also, in [15], the MIC was greater than 125 µM. Further, the inhibition of growth at 50 µM in test [8], in test [9], in test [10] and in test [11] was less than 50% throughout.
As for `CC(=O)Nc1nc2c(s1)C[C@@H](NC(=O)c1cc(Br)c(Br)[nH]1)CC2`, the results for the IC50 in test [1] and in [2] were 0.15 µM and 26 µM, respectively. Also, the Activity in [3] stood at 98%; in test [18], 101%. For the same compound, the inhibition of growth at 50 µM in test [8], in test [9], in test [10] and in [11] was less than 50% each time. For the same compound, the MIC in test [12], in test [13], in [14] and in test [15] was greater than 125 µM in each case.
Compound `COC(=O)CCC(=O)Nc1nc2c(s1)C[C@@H](NC(=O)c1cc(Br)c(Br)[nH]1)CC2` came in with a Kd in [16] of 0.15 µM. For the same compound, the IC50 in test [1] came out at 0.093 µM. In addition, the Activity was 113% in test [17], 97% in test [3] and 99% in test [18]. The MIC in test [5] was greater than 256 µg/mL; in [6], 32 µg/mL (≈ 59.9 µM); in test [7], 64 µg/mL (≈ 120 µM); in test [12], greater than 125 µM; in test [13], greater than 125 µM; in test [14] it was greater than 125 µM. For the same compound, in test [15], the MIC is greater than 125 µM. Also, the inhibition of growth at 50 µM in test [8], in [9], in test [10] and in [11] was less than 50% each time.
On to `Nc1nc2c(s1)C[C@@H](NC(=O)c1cc(Cl)c(Cl)[nH]1)CC2`, for which the midpoint of inhibition in [1], the IC50, lay at 12 µM. Moreover, the values for the Activity in test [17], in test [3] and in test [18] were 85%, 97% and 98%, respectively. Further, the MIC is greater than 256 µg/mL in test [5]; 64 µg/mL (≈ 193 µM) in test [6]; 64 µg/mL (≈ 193 µM) in test [7]; greater than 125 µM in test [12]; greater than 125 µM in [13]; greater than 125 µM in test [14]. The MIC in test [15] is greater than 125 µM. The inhibition of growth at 50 µM in [8], in [9], in test [10] and in [11] was less than 50% in each case.
Take `O=C(O)CCC(=O)Nc1nc2c(s1)C[C@@H](NC(=O)c1cc(Cl)c(Cl)[nH]1)CC2`: the IC50 worked out at 0.3 µM in test [1] and 10 µM in test [2]. For the same compound, the Activity in test [3] was 72%; in test [18] it was 97%. In addition, the MIC was greater than 256 µg/mL in test [5]; greater than 256 µg/mL in test [6]; greater than 256 µg/mL in test [7]; greater than 125 µM in test [12]; greater than 125 µM in [13]; greater than 125 µM in test [14]. Further, in test [15], the MIC is greater than 125 µM. Besides, the inhibition of growth at 50 µM in test [8], in test [9], in test [10] and in test [11] was less than 50% throughout.
In test [1], `O=C(O)C(=O)Nc1nc2c(s1)C[C@@H](NC(=O)c1cc3ccccc3[nH]1)CC2` gave an IC50 of 7.7 µM. The Activity stood at 79% in [17], 47% in test [3] and 99% in test [18]. In addition, the MIC was greater than 256 µg/mL in test [5]; greater than 256 µg/mL in test [6]; 128 µg/mL (≈ 333 µM) in test [7]; greater than 125 µM in [12]; greater than 125 µM in test [13]; greater than 125 µM in [14]. Also, the MIC in test [15] is greater than 125 µM. Further, the inhibition of growth at 50 µM in test [8], in test [9], in [10] and in [11] was less than 50% throughout.
As for `COC(=O)CC(=O)Nc1nc2c(s1)C[C@H](NC(=O)c1cc(Br)c(Br)[nH]1)CC2`, in test [1], the IC50 was determined as 9.1 µM. Also, the Activity was 64% in test [17], 101% in test [3] and 85% in test [18]. The MIC in [5] was greater than 256 µg/mL; in test [6], 64 µg/mL (≈ 123 µM); in [7], 256 µg/mL (≈ 492 µM); in test [12], greater than 125 µM; in [13], greater than 125 µM; in test [14] it was greater than 125 µM. In addition, the MIC in [15] was greater than 125 µM. For the same compound, the inhibition of growth at 50 µM in test [8], in test [9], in test [10] and in test [11] was less than 50% throughout.
Regarding `Nc1ncc2c(n1)CCC(NC(=O)c1cc(Br)c(Br)[nH]1)C2` (centres undefined), in test [1], it took 2.9 µM to reach half-maximal inhibition (IC50). Also, the values for the Activity in test [17], in test [3] and in test [18] were 96%, 102% and 98%, respectively. The MIC is greater than 256 µg/mL in test [5]; greater than 256 µg/mL in test [6]; greater than 256 µg/mL in test [7]; greater than 125 µM in test [12]; greater than 125 µM in [13]; greater than 125 µM in [14]. Also, in test [15], the MIC was greater than 125 µM. The inhibition of growth at 50 µM in test [8], in test [9], in [10] and in test [11] was less than 50% in each case.
In the case of `NC(=O)CC(=O)Nc1nc2c(s1)C[C@@H](NC(=O)c1cc(Br)c(Br)[nH]1)CC2`, in test [1], the IC50 is 1.7 µM. The Activity in test [17] amounted to 71%; in test [3], 97%; in test [18], 98%. For the same compound, the MIC was greater than 256 µg/mL in [5]; 128 µg/mL (≈ 253 µM) in test [6]; greater than 256 µg/mL in test [7]; greater than 125 µM in [12]; greater than 125 µM in test [13]; greater than 125 µM in test [14]. In addition, the MIC in test [15] was greater than 125 µM. For the same compound, the inhibition of growth at 50 µM in [8], in test [9], in test [10] and in test [11] was less than 50% each time.
For `O=C(O)CC(=O)Nc1nc2c(s1)C[C@H](NC(=O)c1cc(Br)c(Br)[nH]1)CC2`, in [1], the IC50 is 0.5 µM. Moreover, the Activity turned out to be 108% in [17], 96% in [3] and 102% in test [18]. In addition, the MIC is greater than 256 µg/mL in test [5]; greater than 256 µg/mL in test [6]; greater than 256 µg/mL in test [7]; greater than 125 µM in test [12]; greater than 125 µM in test [13]; greater than 125 µM in test [14]. Also, the MIC in test [15] was greater than 125 µM. For the same compound, the inhibition of growth at 50 µM in test [8], in test [9], in test [10] and in [11] was less than 50% throughout.
In turn, `COC(=O)CC(=O)Nc1ncc2c(n1)CCC(NC(=O)c1cc(Br)c(Br)[nH]1)C2` (centres undefined) yielded an IC50 in test [1] of 2.6 µM. Also, the Activity in [17] worked out at 71%; in test [3], 97%; in [18] it was 98%. Also, the MIC in test [5] is greater than 256 µg/mL; in test [6], 64 µg/mL (≈ 124 µM); in [7], 256 µg/mL (≈ 497 µM); in test [12], greater than 125 µM; in test [13] it was greater than 125 µM; in [14], greater than 125 µM. The MIC in test [15] is greater than 125 µM. Moreover, the inhibition of growth at 50 µM in [8], in test [9], in test [10] and in test [11] was less than 50% in each case.
